Measured values reported in patent publication US20220025053A1, “Methods of Inhibiting Metastasis in Cancer” (Wisconsin Alumni Research Foundation, priority 2018, published 2022).
“Also recorded” adds a separate entry of the source.

Assays:
ovarian cancer xenograft = conditions: clodronate to reduce macrophage levels; cited from earlier work
HGSOC = conditions: mouse models of HGSOC; cited from earlier work
P-selectin [1] = biological target: T1, P-selectin (Homo sapiens, UniProt P16109); test: HGSOC adhesion to LP-9 mesothelial cells in co-culture device, P-selectin inhibition; assay type: cell-based; set-up: endogenous in cells; host or cells: LP-9 mesothelial cells; conditions: LP-9 + 100 ng/mL MIP-1β; 10 μM KF38789 1 hour before tumor cells; 3 h adhesion
T1 sequence (P16109 42-830): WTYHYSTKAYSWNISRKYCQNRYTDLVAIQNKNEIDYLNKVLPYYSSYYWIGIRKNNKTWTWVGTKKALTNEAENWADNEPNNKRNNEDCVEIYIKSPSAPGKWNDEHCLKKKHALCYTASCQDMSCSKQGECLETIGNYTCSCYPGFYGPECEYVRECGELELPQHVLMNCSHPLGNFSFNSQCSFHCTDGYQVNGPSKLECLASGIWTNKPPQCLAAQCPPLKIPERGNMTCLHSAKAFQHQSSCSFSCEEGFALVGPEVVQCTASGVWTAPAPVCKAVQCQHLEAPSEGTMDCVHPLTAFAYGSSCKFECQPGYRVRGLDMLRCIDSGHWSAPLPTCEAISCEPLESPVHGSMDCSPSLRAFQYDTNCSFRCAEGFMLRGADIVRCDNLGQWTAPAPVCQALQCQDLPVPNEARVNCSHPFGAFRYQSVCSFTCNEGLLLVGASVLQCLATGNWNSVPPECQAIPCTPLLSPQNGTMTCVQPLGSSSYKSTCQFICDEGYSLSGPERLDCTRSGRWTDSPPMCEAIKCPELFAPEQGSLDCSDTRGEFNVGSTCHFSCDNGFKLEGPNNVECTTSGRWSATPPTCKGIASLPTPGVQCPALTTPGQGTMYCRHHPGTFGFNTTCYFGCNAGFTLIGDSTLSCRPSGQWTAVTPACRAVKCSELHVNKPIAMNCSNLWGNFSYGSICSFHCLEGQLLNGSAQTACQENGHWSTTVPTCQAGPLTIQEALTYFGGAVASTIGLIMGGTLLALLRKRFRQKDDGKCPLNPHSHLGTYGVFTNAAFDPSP
Excerpt: (§1) In vitro model of adhesion in transcoelomic metastasis: A co-culture device was modified to construct the in vitro model of metastatic adhesion (FIG. 2). The device includes a PDMS ring that is placed in a well of a 24 well tissue culture plate and a 9×9 mm coverslip placed on top. One or more cell types can be grown within the ring, while another population can be grown on the coverslip. Inverting the coverslip on top of the ring initiates co-culture between the populations. The tissue culture plastic within the PDMS ring was coated with 1 μg of PureCol® Collagen I (Advanced Biomatrix; San Diego, Calif.) for 2 hours at room temperature. LP-9 or LP-3 were seeded into the PDMS rings to confluency (93,500 cells/cm^2 in 40 μL). Twenty-four hours after seeding, cells were washed with SFM, AAM or control coverslips were placed on top of the PDMS ring, and 40 μL of fresh SFM was added. HGSOC cells were stained with 5 μM CellTracker™ Green CMFDA Dye, dissociated using TrypLE™ Select Enzyme, and seeded into devices at 10,000 cells/10 μL after 24 hours of mesothelial cells and AAMs co-culture. […] Percent adhesion was quantified by converting cells/image to total cells/area of the co-culture device and dividing by the number of HGSOC cells added to the device.

P-selectin [2] = biological target: T1, P-selectin; test: Colorectal cancer cell adhesion to MIP-1β-treated LP-9; assay type: cell-based; set-up: endogenous in cells; host or cells: LP-9 mesothelial cells; conditions: LS411N, SW48; 100 ng/mL MIP-1β; KF38789 10 μM
Method: The experimental methods are reflective of those previously used to inhibit P-selectin, while used in an adhesion experiment with the colorectal cell lines LS411N and SW48.
The tissue culture plastic within the PDMS ring was coated with 1 μg of PureCol® Collagen I for 2 hours at room temperature. LP-9 were seeded into the PDMS rings to confluency (93,500 cells/cm^2 in 40 μL). Twenty-four hours after seeding, cells were washed with SFM, and 40 μL of fresh SFM containing either vehicle (0.1% BSA) or 100 ng/mL MIP-1β was added for 24 hours. To determine if P-selectin played a role in adhesion, LP-9 were treated with 10 μM of the small molecule P-selectin inhibitor KF38789 or DMSO (0.0005% v/v) 1 hour prior to the addition of colorectal cancer cells. The colorectal cancer cells (LS411N, SW48) were stained with 5 μM CellTracker™ Green CMFDA Dye, dissociated using TrypLE Select Enzyme, and seeded into devices at 10,000 cells/10 μL after 24 hours of mesothelial cell treatment with MIP-1β. Colorectal cancer cells were allowed to adhere for three hours, then coverslips were removed, and devices were washed twice with 2 mL PBS to remove non-adherent cells. […] Percent adhesion was quantified by converting cells/image to total cells/area of the co-culture device and dividing by the number of HGSOC cells added to the device.

MEK = test: SELP expression in LP-9 by qRT-PCR, MEK inhibition; assay type: cell-based, human; conditions: both vehicle and 100 ng/mL MIP-1β treated LP-9, 10 μM PD0325901, 24 hours
Excerpt: (§2) RNA extraction and qRT-PCR: RNA was collected and isolated using the Micro-RNeasy® Extraction kit (Qiagen; Valencia, Calif.), and cDNA was synthesized using the Qiagen® First Strand Kit according to manufacturer's instructions. cDNA was mixed with Qiagen® Mastermix and assayed using the Extracellular Matrix and Adhesion Molecules RT2 Profiler PCR Array (Qiagen) in a CFX real time PCR machine (Bio-Rad; Hercules, Calif.) for a total of 40 cycles, using Qiagen's Data Analysis Center for analysis. Data is expressed as fold change, with ±2-fold set as the threshold for significance. qRT-PCR was performed using human primers for SELP, CCR1, and CCR5, and GAPDH (all Qiagen), and mouse primers for Selp (Qiagen) and Aes (IDT; Coralville, Iowa), with SsoAdvanced™ Universal SYBR® Green Supermix (Bio-Rad). Three samples were run in duplicate from each condition.
(§3) Interventions in co-culture model: To determine if P-selectin played a role in adhesion, LP-9 in co-culture devices were treated with 10 μg/mL of anti-P-selectin blocking antibody or monoclonal mouse IgG1 isotype (BioLegend; San Diego, Calif.), or 10 μM of the small molecular inhibitor KF38789 (Tocris; Minneapolis, Minn.) or DMSO (0.0005% v/v) 1 hour prior to the addition of ovarian cancer cells. […]

CCR5 = CCR5 (Homo sapiens, UniProt P51681); test: SELP expression in LP-9 by qRT-PCR, CCR5 inhibition; assay type: cell-based; conditions: 100 ng/mL MIP-1β + 10 μg/mL maraviroc, 24 hours
Excerpt: as §2, §3

P-selectin [3] = biological target: T1, P-selectin; conditions: clinical trial; cited from earlier work
[4] = administered systemically; cited from earlier work
LP-9 mesothelial cells = test: HGSOC adhesion to LP-9 treated with MIP-1β; assay type: cell-based, human; conditions: 100 ng/mL MIP-1β 24 hours, all HGSOC lines
Excerpt: as §1

P-selectin [5] = biological target: T1, P-selectin; conditions: cited from earlier work

Sequence of CCR5 (P51681 whole entry): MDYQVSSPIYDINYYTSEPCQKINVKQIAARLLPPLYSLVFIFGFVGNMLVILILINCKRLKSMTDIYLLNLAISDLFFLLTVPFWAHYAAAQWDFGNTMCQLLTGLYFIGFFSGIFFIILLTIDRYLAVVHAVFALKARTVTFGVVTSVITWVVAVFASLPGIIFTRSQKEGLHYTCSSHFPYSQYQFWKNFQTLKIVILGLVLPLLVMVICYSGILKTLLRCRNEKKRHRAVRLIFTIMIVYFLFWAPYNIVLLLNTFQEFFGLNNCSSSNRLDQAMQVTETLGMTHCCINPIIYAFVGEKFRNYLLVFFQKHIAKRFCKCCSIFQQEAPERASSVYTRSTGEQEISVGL

For `O=P(O)(O)C(Cl)(Cl)P(=O)(O)O` [clodronate], the Metastasis (ovarian cancer xenograft) is listed as “decreased metastasis”.

In the case of IL-1ra: AAM-secreted ligand IL-1ra, the Extent of metastasis (HGSOC) is given as “decrease the extent of metastasis”.

For `COc1ccc(C2CC(c3c(O)cc(C)oc3=O)=NCCS2)c(OC)c1` (stereo not drawn) [KF38789, reference compound], the “HGSOC adhesion to LP-9 increased by MIP-1β” value (P-selectin [1]) was “abrogated the increased adhesion” and the “Colorectal cancer cell adhesion to LP-9 increased by MIP-1β” value (P-selectin [2]) was “abrogates the increased adhesion”.

For `O=C(NOC[C@H](O)CO)c1ccc(F)c(F)c1Nc1ccc(I)cc1F` [PD0325901], the “SELP expression in LP-9” value (MEK) was “significantly decreased SELP expression”.

For Maraviroc, the “MIP-1β-stimulated SELP expression in LP-9” value (CCR5) was “effective in inhibiting MIP-1β-stimulated expression of SELF” and the “MIP-1β-stimulated SELP expression in LP-9” value (CCR5; listed as maraviroc) was “negated SELP upregulation; also recorded: inhibited the upregulation of SELP”.

For inclacumab, the “Efficacy for saphenous vein graft failure following coronary artery bypass surgery” value (P-selectin [3]) is listed as “surgery (94-96). While inclacumab had low efficacy for this” and the Tolerability in patients [4] is listed as “well tolerated”.

B1: MIP-1β: recombinant chemokine MIP-1β (Peprotech; recombinant mouse MIP-1β in vivo) (protein, UniProt P13236 24-92, looked up)
C-C motif chemokine 4: APMGSDPPTACCFSYTARKLPRNFVVDYYETSSLCSQPAVVFQTKRSKQVCADPSESWVQEYVYDLELN
In the case of B1, the “HGSOC adhesion to LP-9 treated with MIP-1β” value (LP-9 mesothelial cells) is reported as “significantly increased adhesion”.

B2: crizanlizumab (antibody, chains of the INN, looked up, V domains shown)
VH: QVQLVQSGAEVKKPGASVKVSCKVSGYTFTSYDINWVRQAPGKGLEWMGWIYPGDGSIKYNEKFKGRVTMTVDKSTDTAYMELSSLRSEDTAVYYCARRGEYGNYEGAMDYWGQGTLVTVSS
VL: DIQMTQSPSSLSASVGDRVTITCKASQSVDYDGHSYMNWYQQKPGKAPKLLIYAASNLESGVPSRFSGSGSGTDFTLTISSLQPEDFATYYCQQSDENPLTFGGGTKVEIK
notes: monoclonal antibody against P-selectin
In the case of B2, the “Effect on P-selectin-ligand binding” value (P-selectin [5]) is given as “not only block ligand binding but also disrupt existing P-selectin-ligand interactions” and the Tolerability in patients [4] is given as “well tolerated”.
